The values below come from patent EP1063290A1, “NOVEL DICARBONYLREDUCTASE AND GENE ENCODING THE SAME” (TAISHO PHARMACEUTICAL CO., LTD, priority 1998, dated 1999).

Where two headings read alike, the source gives them in different places.

The target of experiment [1] is protein hDCR1 (Homo sapiens, UniProt Q7Z4W1). Briefly: Dicarbonyl reductase activity assay: substrate specificity (NAD(P)H oxidation at 340 nm). The conditions noted are these: against a reference of 100 for diacetyl. The method, then:
(§1) The enzyme activity assay method is not particularly restricted, and it may be based on the activity assay method for mouse carbonyl reductase (CR) (Eur. J. Biochem. 22, 381-387(1995)). The enzyme used here was an expressed recombinant enzyme. • (a) Substrate specificity: In order to determine the substrate specificity, there may be used a hydrocarbon system including various ketone, aldehyde and ester groups, or an aromatic compound.
The reaction mixture (total: 2.0 ml) comprised an 80 mM potassium phosphate solution (pH 7.0 or 6.0), 0.1 mM NADPH or NADH and a carbonyl substrate or enzyme (50 µl) (10.1 µg or 3.7 µg of hDCR1).
The oxidation rate for NAD(P)H was measured at 340 nm.
One unit of enzyme activity was defined as that which catalyzed oxidation of 1 µmol of NAD(P)H in one minute at 25°C.

The subject of experiment [2] is dicarbonyl reductase of the invention. Briefly: Substrate reactivity features summarised from Tables 1, 2 and 3. The class given is biochemical. The conditions noted are these: summary in words of Tables 1, 2 and 3.
Experiment [3] addresses protein DCR1 (Mus musculus, UniProt Q91X52). Briefly: Dicarbonyl reductase activity assay: substrate specificity and rate constants (NAD(P)H oxidation at 340 nm). The conditions noted are these: for substrate ranking (smallest Km values, higher catalyst efficiency Vmax/Km): mouse enzyme, Table 2, result in words. The method, then:
as §1
• (1) This was assayed under the following conditions. The reaction mixture (total: 2.0 ml) comprised an 80 mM potassium phosphate solution (pH 7.0 or 6.0), 0.1 mM NADPH or NADH and a carbonyl substrate or enzyme (50 µl) (10.1 µg or 3.7 µg of glomerin B). The oxidation rate for NAD(P)H was measured at 340 nm.

Experiment [4] addresses T1, hamster liver diacetyl reductase (Hamster DR) (Mesocricetus auratus, UniProt Q91XV4).
T1 construct: from tissue; host or cells: hamster liver
The experiment can be described thus: Inhibition of the enzyme reaction. The class given is biochemical. The conditions noted are these: for inhibition at 1000 µM / inhibition at 100 µM: read-out: Inhibition (%) Hamster DR. An excerpt:
(§2) Two enzymes were used here, mouse DCR1 and hamster liver diacetyl reductase (Hamster DR).

For experiment [5], the target named is T2, mouse DCR1 (Mus musculus, UniProt Q91X52).
T2 construct: made in house; host or cells: E. coli K12
T2 sequence (Q91X52 whole entry): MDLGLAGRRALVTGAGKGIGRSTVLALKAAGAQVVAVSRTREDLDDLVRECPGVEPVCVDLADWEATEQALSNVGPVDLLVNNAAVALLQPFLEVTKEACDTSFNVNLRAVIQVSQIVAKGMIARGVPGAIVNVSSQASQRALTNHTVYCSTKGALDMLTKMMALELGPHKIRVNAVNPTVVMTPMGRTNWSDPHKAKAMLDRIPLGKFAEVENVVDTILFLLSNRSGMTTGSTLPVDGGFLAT
Briefly: Inhibition of the enzyme reaction. The class given is biochemical.
From the text: as §2

The target of experiment [6] is T3, dicarbonyl reductase of the invention (Mus musculus, UniProt Q91X52).
T3 construct: made in house; host or cells: E. coli K12
T3 sequence (Q91X52 whole entry): as above
Briefly: Effects of metal ions and inhibitors on residual enzyme activity. The class given is biochemical. The conditions noted are these: after treating the enzyme with metals and inhibitors. The method, then:
However, since one of their substrates, NADPH, is degraded at below pH 5, activity assay is not possible in that range when NADPH is used and the peak cannot be determined. The examples were therefore carried out at near pH 7, although the optimum pH is not limited to near 7. • (7) pH stability: For example, DCR1 and hDCR1 are incubated for 3 hours at 25°C in buffer solutions with different pH values, and the residual activity is then measured and compared and recorded as relative activity with respect to the value at pH 8.0 with no incubation. • (8) Effects of metal ions and inhibitors: After treating the enzyme with different metals and inhibitors, the residual activity was evaluated.

Setting [7] is: substrate concentration 1,000 μM.
Setting [8] is: substrate concentration 1,000 μM, against a reference of 100 for diacetyl.
Where [9] appears, read: compound concentration 1 mM, read-out: Inhibition (%) CDR1.
The mark [10] stands for this setting: compound concentration 0.1 mM, read-out: Inhibition (%) CDR1.
The mark [11] stands for this setting: compound concentration 0.001 mM.

T1 sequence (Q91XV4 whole entry): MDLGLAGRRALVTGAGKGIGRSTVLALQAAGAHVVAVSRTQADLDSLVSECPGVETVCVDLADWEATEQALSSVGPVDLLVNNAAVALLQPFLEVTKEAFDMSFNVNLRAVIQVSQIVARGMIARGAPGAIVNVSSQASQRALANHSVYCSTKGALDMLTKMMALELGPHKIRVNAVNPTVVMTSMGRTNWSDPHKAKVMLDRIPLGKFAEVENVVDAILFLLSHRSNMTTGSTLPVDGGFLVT
protein DCR1, sequence (Q91X52 whole entry): as the sequence (Q91X52 whole entry) above
protein hDCR1, sequence (Q7Z4W1 whole entry): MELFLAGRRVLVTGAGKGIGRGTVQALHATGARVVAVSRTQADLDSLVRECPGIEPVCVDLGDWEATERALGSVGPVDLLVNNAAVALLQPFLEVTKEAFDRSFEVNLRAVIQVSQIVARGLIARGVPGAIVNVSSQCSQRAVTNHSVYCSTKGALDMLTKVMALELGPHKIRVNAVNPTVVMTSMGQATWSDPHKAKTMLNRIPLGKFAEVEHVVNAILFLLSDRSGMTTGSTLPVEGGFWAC

In the case of `O=C(CBr)C(=O)CBr` [1,4-dibromo-2,3-butanedione], in experiment [1] (setting [7]), the “RA (%) relative activity” value is listed as 133%. Besides, the “reactivity (as substrate)” value in experiment [2] is listed as “strong reactivity”.
Consider `CC(=O)C(=O)c1ccccc1` [1-Phenyl-1,2-propanedione], for which the “RA (%) relative activity” value is given as 65% in experiment [1] (setting [7]) and 148% in experiment [3] (setting [8]). For the same compound, the “substrate ranking (smallest Km values, higher catalyst efficiency Vmax/Km)” value in experiment [3] is recorded as “best substrates”. Moreover, the “reactivity (as substrate)” value in experiment [2] is “strong reactivity”.
`CCCCC(=O)C(C)=O` [2,3-Heptanedione]: the entries for the “RA (%) relative activity” value in experiment [1] (setting [7]) and in experiment [3] (setting [8]) were 174% and 134%, respectively. Further, the “reactivity (as substrate)” value in experiment [2] was “strong reactivity”.
In the case of `CCCC(=O)C(C)=O` [2,3-Hexanedione], the “RA (%) relative activity” value in experiment [1] (setting [7]) is 168%; in experiment [3] (setting [8]) it was 108%. For the same compound, the “reactivity (as substrate)” value in experiment [2] is “strong reactivity”.
As to `CCC(=O)C(C)=O` [2,3-Pentanedione], the results for the “RA (%) relative activity” value in experiment [1] (setting [7]) and in experiment [3] were 167% and 163%, respectively. In experiment [2], the “reactivity (as substrate)” value is recorded as “strong reactivity”.
On to `CCC(=O)C(=O)CC` [3,4-Hexanedione], for which the “RA (%) relative activity” value in experiment [1] (setting [7]) was found to be 170%; in experiment [3] (setting [8]), 232%. For the same compound, the “substrate ranking (smallest Km values, higher catalyst efficiency Vmax/Km)” value in experiment [3] was “best substrates”. For the same compound, in experiment [2], the “reactivity (as substrate)” value is given as “strong reactivity”.
By inhibition is commonly meant the relative decrease from the control value, in per cent. On to `NC(=O)c1ccc(O)cc1` [4-Hydroxybenzamide], for which the inhibition at 1000 µM in experiment [4] worked out at 19%; in experiment [5] (read-out: Inhibition (%) CDR1) it was 44%.
`O=C1C(=O)c2cccc3cccc1c23` [Acenaphthenequinone]: the “RA (%) relative activity” value in experiment [1] (substrate concentration 25 μM) is 181%; in experiment [3] (substrate concentration 25 μM, against a reference of 100 for diacetyl) it was 14.1%. Moreover, the “reactivity (as substrate)” value in experiment [2] is given as “strong reactivity”.
With `Nc1ccccc1C(=O)O` [Anthranilic acid], the inhibition at 100 µM came out at 42% in experiment [4] and 0% in experiment [5] (read-out: Inhibition (%) CDR1).
On to `CCC1(CC)C(=O)NC(=O)NC1=O` [Barbital], for which the inhibition at 1000 µM is 5% in experiment [4] and 0% in experiment [5] (read-out: Inhibition (%) CDR1).
Consider `NC(=O)c1ccccc1` [Benzamide], for which the inhibition at 1000 µM was determined as 43% in experiment [4] (compound concentration 1 mM) and 18% in experiment [5] (setting [9]).
On to `O=C(O)c1ccccc1` [Benzoic acid], for which the inhibition at 100 µM in experiment [4] worked out at 59%; in experiment [5] (read-out: Inhibition (%) CDR1) it was 32%.
With `[Ca+2].[Cl-].[Cl-]` [CaCl2], the “effect on the enzyme (residual activity)” value in experiment [6] is on record as “virtually no effect”.
For `O=C1NC(=O)C(c2ccccc2)(c2ccccc2)N1` [Diphenlhydantoin], the inhibition at 100 µM is 2% in experiment [4] and 17% in experiment [5] (read-out: Inhibition (%) CDR1).
As for `C=C(CC)C(=O)c1ccc(OCC(=O)O)c(Cl)c1Cl` [Ethacrynic acid], the inhibition at 100 µM is 3% in experiment [4] (compound concentration 0.1 mM) and 0% in experiment [5] (setting [10]).
Turning to `O=C1Nc2ccccc2C1=O` [Isatin], the “RA (%) relative activity” value in experiment [1] (substrate concentration 500 μM) is listed as 252%; in experiment [3] (substrate concentration 400 μM, against a reference of 100 for diacetyl), 106.7%. The “reactivity (as substrate)” value in experiment [2] is reported as “strong reactivity”.
On to `CC(C)CN` [Isobutylamine], for which the inhibition at 1000 µM turned out to be 50% in experiment [4] (compound concentration 1 mM) and 16% in experiment [5] (setting [9]).
In the case of `O=C(O)c1ccncc1` [Isonicotinic acid], the inhibition at 100 µM in experiment [4] (compound concentration 0.1 mM) stood at 4%; in experiment [5] (setting [10]), 0%.
`[Cl-].[Cl-].[Mg+2]` [MgCl2]: the “effect on the enzyme (residual activity)” value in experiment [6] is “virtually no effect”.
As to `c1cn[nH]c1` [Pyrazole], the inhibition at 10000 µM in experiment [4] (compound concentration 10 mM) worked out at 5%; in experiment [5] (compound concentration 10 mM, read-out: Inhibition (%) CDR1) it was 29%.
Consider `O=c1c(O)c(-c2ccc(O)c(O)c2)oc2cc(O)cc(O)c12` [Quercitin], for which the results for the inhibition at 100 µM in experiment [4] (compound concentration 0.1 mM) and in experiment [5] (setting [10]) were 33% and 50%, respectively.
Turning to `O=C(O)CC1(CC(=O)O)CCCC1` [Tetramethyleneglutaric acid], the results for the inhibition at 100 µM in experiment [4] and in experiment [5] (read-out: Inhibition (%) CDR1) were 63% and 0%, respectively.
Consider `c1cnc2c(c1)ccc1cccnc12` [o-Phenanthroline], for which the inhibition at 1000 µM in experiment [4] was found to be 0%; in experiment [5] (read-out: Inhibition (%) CDR1) it was 8%.
For the compound Cibacron blue dye, the “Inhibition (%) Hamster DR” value in experiment [4] (setting [11]) is listed as 18%. Also, in experiment [5] (setting [11]), the “Inhibition (%) CDR1” value worked out at 21%.
